Results as given in ChEMBL document CHEMBL3393039, “Anthranilic acid derivatives as nuclear receptor modulators--development of novel PPAR selective and dual PPAR/FXR ligands” (Bioorg Med Chem, 2015).
The source made the active and inactive calls. No cut-off for these calls is given here.

Columns and labels:
[1] = target: T1, Peroxisome proliferator-activated receptor alpha (Homo sapiens) (UniProt Q07869); test: Transactivation of Gal4-tagged PPARalpha ligand binding domain (unknown origin) expressed in COS7 cells at 10 uM measured after overnight incubation by luciferase reporter gene assay; format: cell-based; conditions: COS-7
T1 sequence (whole entry): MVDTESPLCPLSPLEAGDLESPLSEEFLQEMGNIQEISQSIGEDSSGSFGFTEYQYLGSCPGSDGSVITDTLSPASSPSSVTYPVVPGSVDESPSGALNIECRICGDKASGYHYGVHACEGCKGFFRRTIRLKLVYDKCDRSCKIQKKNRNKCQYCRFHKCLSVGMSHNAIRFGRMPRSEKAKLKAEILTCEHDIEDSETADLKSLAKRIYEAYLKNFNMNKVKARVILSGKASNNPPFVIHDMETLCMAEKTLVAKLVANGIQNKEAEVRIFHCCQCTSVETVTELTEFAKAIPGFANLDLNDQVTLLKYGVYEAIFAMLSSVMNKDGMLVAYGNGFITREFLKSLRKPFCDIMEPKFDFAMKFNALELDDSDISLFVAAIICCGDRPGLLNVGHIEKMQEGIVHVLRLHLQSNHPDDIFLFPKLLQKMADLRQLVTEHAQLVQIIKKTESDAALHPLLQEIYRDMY

[2] = target: T2, Bile acid receptor (Homo sapiens) (UniProt Q96RI1); test: Transactivation of human FXR expressed in human HeLa cells incubated for 24 hrs by luciferase reporter gene assay relative to GW4064; format: cell-based
T2 sequence (whole entry): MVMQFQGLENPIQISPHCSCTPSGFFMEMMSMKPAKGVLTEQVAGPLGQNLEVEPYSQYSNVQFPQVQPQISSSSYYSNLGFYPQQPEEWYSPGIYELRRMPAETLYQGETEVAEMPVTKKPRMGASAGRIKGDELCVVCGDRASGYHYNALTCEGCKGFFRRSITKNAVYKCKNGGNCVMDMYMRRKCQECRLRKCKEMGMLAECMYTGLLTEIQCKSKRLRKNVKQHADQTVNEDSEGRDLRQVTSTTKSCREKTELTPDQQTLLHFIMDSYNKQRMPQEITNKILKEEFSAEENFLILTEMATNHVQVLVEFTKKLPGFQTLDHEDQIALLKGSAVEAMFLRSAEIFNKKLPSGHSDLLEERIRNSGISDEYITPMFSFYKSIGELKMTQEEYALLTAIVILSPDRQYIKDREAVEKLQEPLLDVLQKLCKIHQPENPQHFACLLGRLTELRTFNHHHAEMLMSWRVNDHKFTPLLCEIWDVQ

[3] = target: T3, Peroxisome proliferator-activated receptor delta (Homo sapiens) (UniProt Q03181); test: Transactivation of Gal4-tagged PPARdelta ligand binding domain (unknown origin) expressed in COS7 cells at 30 uM measured after overnight incubation by luciferase reporter gene assay; format: cell-based; conditions: COS-7
T3 sequence (whole entry): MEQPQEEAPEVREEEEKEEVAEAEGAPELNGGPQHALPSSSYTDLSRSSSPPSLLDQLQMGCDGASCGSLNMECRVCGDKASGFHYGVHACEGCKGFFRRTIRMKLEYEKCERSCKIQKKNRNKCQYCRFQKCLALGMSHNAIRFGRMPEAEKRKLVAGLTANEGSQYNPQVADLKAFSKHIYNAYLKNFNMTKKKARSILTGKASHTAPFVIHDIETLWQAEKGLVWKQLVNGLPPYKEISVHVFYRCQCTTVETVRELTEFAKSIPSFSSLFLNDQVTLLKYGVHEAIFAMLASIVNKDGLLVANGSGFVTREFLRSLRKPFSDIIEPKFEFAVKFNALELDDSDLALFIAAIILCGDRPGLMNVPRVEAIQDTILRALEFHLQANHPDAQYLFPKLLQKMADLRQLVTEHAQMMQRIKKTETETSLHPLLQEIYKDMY

[4] = target: T4, Peroxisome proliferator-activated receptor gamma (Homo sapiens, UniProt P37231); test: Transactivation of Gal4-tagged PPARgamma ligand binding domain (unknown origin) expressed in COS7 cells measured after overnight incubation by luciferase reporter gene assay; format: cell-based, COS-7
T4 sequence (P37231 whole entry): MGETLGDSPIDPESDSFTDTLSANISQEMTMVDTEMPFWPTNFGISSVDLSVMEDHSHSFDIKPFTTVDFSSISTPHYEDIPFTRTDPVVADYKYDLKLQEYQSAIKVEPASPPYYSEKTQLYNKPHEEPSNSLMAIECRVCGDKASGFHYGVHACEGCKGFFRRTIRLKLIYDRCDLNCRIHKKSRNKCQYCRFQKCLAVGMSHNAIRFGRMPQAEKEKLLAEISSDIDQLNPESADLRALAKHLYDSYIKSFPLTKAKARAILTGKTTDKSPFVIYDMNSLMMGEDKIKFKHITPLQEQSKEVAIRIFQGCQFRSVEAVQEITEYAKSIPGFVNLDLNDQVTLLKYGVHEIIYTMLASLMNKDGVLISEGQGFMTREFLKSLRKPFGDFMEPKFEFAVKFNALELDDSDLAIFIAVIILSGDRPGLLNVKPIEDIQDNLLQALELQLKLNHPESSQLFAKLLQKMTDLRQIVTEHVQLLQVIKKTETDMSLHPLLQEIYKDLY

[5] = target: T5, Peroxisome proliferator-activated receptor gamma (Homo sapiens) (UniProt P37231); test: Transactivation of Gal4-tagged PPARgamma ligand binding domain (unknown origin) expressed in COS7 cells measured after overnight incubation by luciferase reporter gene assay relative to piaglitazone; format: cell-based; conditions: Chlorocebus aethiops; COS-7
T5 sequence (whole entry): T4 sequence (P37231 whole entry)

Bile acid receptor = target: T6, Bile acid receptor (Homo sapiens, UniProt Q96RI1); test: Transactivation of human FXR expressed in human HeLa cells incubated for 24 hrs by luciferase reporter gene assay; format: cell-based
T6 sequence (Q96RI1 whole entry): T2 sequence (whole entry)

[6] = target: T7, Peroxisome proliferator-activated receptor delta (Homo sapiens, UniProt Q03181); test: Transactivation of Gal4-tagged PPARdelta ligand binding domain (unknown origin) expressed in COS7 cells measured after overnight incubation by luciferase reporter gene assay; format: cell-based, COS-7
T7 sequence (Q03181 whole entry): T3 sequence (whole entry)

[7] = target: T8, Peroxisome proliferator-activated receptor alpha (Homo sapiens, UniProt Q07869); test: Transactivation of Gal4-tagged PPARalpha ligand binding domain (unknown origin) expressed in COS7 cells measured after overnight incubation by luciferase reporter gene assay; format: cell-based, COS-7
T8 sequence (Q07869 whole entry): T1 sequence (whole entry)

[8] = target: T3, Peroxisome proliferator-activated receptor delta (Homo sapiens); test: Transactivation of Gal4-tagged PPARdelta ligand binding domain (unknown origin) expressed in COS7 cells measured after overnight incubation by luciferase reporter gene assay relative to L165,041; format: cell-based; conditions: Chlorocebus aethiops; COS-7
[9] = target: T5, Peroxisome proliferator-activated receptor gamma (Homo sapiens); test: Transactivation of Gal4-tagged PPARgamma ligand binding domain (unknown origin) expressed in COS7 cells at 10 uM measured after overnight incubation by luciferase reporter gene assay; format: cell-based; conditions: COS-7
[10] = target: T5, Peroxisome proliferator-activated receptor gamma (Homo sapiens); test: Transactivation of Gal4-tagged PPARgamma ligand binding domain (unknown origin) expressed in COS7 cells at 30 uM measured after overnight incubation by luciferase reporter gene assay; format: cell-based; conditions: COS-7
[11] = target: T1, Peroxisome proliferator-activated receptor alpha (Homo sapiens); test: Transactivation of Gal4-tagged PPARalpha ligand binding domain (unknown origin) expressed in COS7 cells at 30 uM measured after overnight incubation by luciferase reporter gene assay; format: cell-based; conditions: COS-7
[12] = target: T2, Bile acid receptor (Homo sapiens); test: Transactivation of human FXR expressed in human HeLa cells at 30 uM incubated for 24 hrs by luciferase reporter gene assay; format: cell-based

| SMILES | max activation [1] | max activation [2] | Activity [3] | EC50 [4] | max activation [5] | EC50 (Bile acid receptor) | EC50 [6] | EC50 [7] | max activation [8] | max activation [9] | Activity [10] | Activity [11] | Activity [12] |
| --- | --- | --- | --- | --- | --- | --- | --- | --- | --- | --- | --- | --- | --- |
| CC(C)(C)c1ccc(C(=O)Nc2ccccc2C(=O)Nc2cc(C(=O)O)ccc2F)cc1 | 17% | 12% | inactive | 5.8 µM | 735% | – | – | – | – | – | – | – | – |
| O=C(O)c1cccc(NC(=O)c2ccc(Cl)cc2NC(=O)c2ccc(C(F)(F)F)cc2)c1 | – | 17.8% | – | 8.7 µM | 420% | 2.1 µM | 3.4 µM | 18.6 µM | 16.5% | – | – | – | – |
| CSc1ccc(C(=O)Nc2ccccc2C(=O)Nc2cccc(CC(=O)O)c2)cc1 | – | 16.9% | – | 17.4 µM | 200% | 8.5 µM | 7.4 µM | 14.4 µM | 133% | – | – | – | – |
| CC(C)(C)c1ccc(C(=O)Nc2ccccc2C(=O)Nc2cccc(C(N)=O)c2)cc1 | – | 15% | inactive | – | – | 0.07 µM | – | – | – | – | inactive | inactive | – |
| CC(C)(C)c1ccc(C(=O)Nc2ccccc2C(=O)Nc2cc(C(=O)O)ccc2Cl)cc1 | 16% | 16% | inactive | 1.9 µM | 154% | – | – | – | – | – | – | – | – |
| O=C(O)Cc1cccc(NC(=O)c2ccccc2NC(=O)c2ccc(SC(F)(F)F)cc2)c1 | – | 23% | – | 4.4 µM | 158% | 7 µM | 2.3 µM | 1.3 µM | 64% | – | – | – | – |
| O=C(O)c1cccc(NC(=O)c2cc(Cl)ccc2NC(=O)c2ccc(C(F)(F)F)cc2)c1 | 25% | 16.9% | – | 4.7 µM | 415% | 3.4 µM | 6.3 µM | – | 24% | – | – | – | – |
| O=C(O)c1cccc(NC(=O)c2ccccc2NC(=O)c2cc(C(F)(F)F)cc(C(F)(F)F)c2)c1 | 15% | – | inactive | 11 µM | 114% | – | – | – | – | – | – | – | inactive |
| O=C(O)CCc1cccc(NC(=O)c2ccccc2NC(=O)c2ccc(C(F)(F)F)cc2)c1 | – | 13% | – | 6.9 µM | 70% | 2.3 µM | 6.8 µM | 5.9 µM | 120% | – | – | – | – |
| O=C(O)c1cccc(NC(=O)c2c(Cl)cccc2NC(=O)c2ccc(C(F)(F)F)cc2)c1 | – | – | inactive | – | – | – | – | – | – | – | inactive | inactive | inactive |
| O=C(O)Cc1cccc(NC(=O)c2ccccc2NC(=O)c2ccc(C(F)(F)F)cc2)c1 | – | 14.8% | – | 9.4 µM | 161% | 2.6 µM | 2.2 µM | 5.4 µM | 58% | – | – | – | – |

The remaining lines, values ahead:

| max activation [1] | max activation [2] | Activity [3] | EC50 [4] | max activation [5] | EC50 (Bile acid receptor) | EC50 [6] | EC50 [7] | max activation [8] | max activation [9] | Activity [10] | Activity [11] | Activity [12] | SMILES |
| --- | --- | --- | --- | --- | --- | --- | --- | --- | --- | --- | --- | --- | --- |
| 17% | – | inactive | – | – | – | – | – | – | 56% | – | – | – | O=C(O)c1ccc(CNC(=O)c2ccccc2NC(=O)c2ccc3ccccc3c2)cc1 |
| – | – | inactive | – | – | – | – | 15.7 µM | – | 39% | – | – | – | CCc1ccc(C(=O)Nc2ccccc2C(=O)NCCCC(=O)O)cc1 |
| 17.3% | – | – | – | – | – | 5.9 µM | – | 54% | 13.2% | – | – | inactive | COc1ccc(C(=O)Nc2ccccc2C(=O)Nc2cccc(CC(=O)O)c2)cc1 |
| 38% | – | inactive | – | – | – | – | – | – | 40% | – | – | – | O=C(O)CCCCCNC(=O)c1ccccc1NC(=O)c1ccc2ccccc2c1 |
| – | – | inactive | – | – | – | – | – | – | 25% | – | inactive | – | O=C(O)Cc1ccc(NC(=O)c2ccccc2NC(=O)c2ccc3ccccc3c2)cc1 |
| – | 22% | inactive | 5 µM | 175% | 0.06 µM | – | 5.4 µM | – | – | – | – | – | CC(C)(C)c1ccc(C(=O)Nc2ccccc2C(=O)Nc2cccc(CCC(=O)O)c2)cc1 |
| 12% | – | inactive | 41 µM | 397% | – | – | – | – | – | – | – | inactive | O=C(O)CCCNC(=O)c1ccccc1NC(=O)c1cccc2ccccc12 |
